Data from US12649750B2, “Macrocyclic compounds, compositions, and methods of using thereof” (Sionna Therapeutics Inc., priority 2022, dated 2026).

Experiments:
CFTR = molecular target: T1, CFTR (Homo sapiens, UniProt P13569, DEL508-508); assay: TECC24 AUC fold over DMSO @10 μM, CFTR-mediated transepithelial chloride transport in CF-HBE cells; type: cell-based; details: test agent AUC divided by DMSO vehicle AUC, primary CF-HBE cells, ΔF508 homozygous donor, 48 hours incubation
T1 construct: Primary human bronchial epithelial cells from a ΔF508 homozygous CF donor; host or cells: primary human bronchial epithelial cells (CF-HBE), ΔF508 homozygous donor
Procedure: Example 387. TECC24 AUC Fold Over DMSO @10 μM
The effects of a test agent on CFTR-mediated transepithelial chloride transport is measured using TECC24 recording analysis. Test agents are solubilized in DMSO. Solubilized test agents are mixed with incubation medium containing DMEM/F12, Ultroser G (2%; Crescent Chemical, catalog #67042), Hyclone Fetal Clone II (2%; GE Healthcare, catalog #SH30066.02), bovine brain extract (0.25%; Lonza, catalog #CC-4098), insulin (2.5 μg/mL), IL-13 (10 ng/mL), hydrocortisone (20 nM), transferrin (2.5 μg/mL), triiodothyronine (500 nM), ethanolamine (250 nM), epinephrine (1.5 μM), phosphoethanolamine (250 nM), and retinoic acid (10 nM). Primary human bronchial epithelial cells from a ΔF508 homozygous CF donor (CF-HBE cells; from University of North Carolina Cystic Fibrosis Tissue Procurement Center), grown on Transwell HTS 24-well cell culture inserts (Costar, catalog #3378), are exposed to test agents or controls dissolved in incubation medium. The CF-HBE cells are cultured at 36.5° C. for 48 hours before TECC24 recordings are performed in the presence or absence of test agent, a positive control or vehicle (DMSO).
Following incubation, the transwell cell culture inserts containing the test agent or control-treated CF-HBE cells are loaded onto a TECC24 apparatus (TECC v7 or MTECC v2; EP Design) to record the transepithelial voltage (VT) and resistance (TEER) using 4 AgCl electrodes per well configured in current-clamp mode. The apical and basolateral bath solutions both contain (in mM) 140 NaCl, 5 KCl, 2 CaCl2, 1 MgCl2, 10 Hepes, and 10 glucose (adjusted to pH 7.4 with NaOH). To inhibit basal Na+ absorption, the ENaC inhibitor benzamil (10 μM) is added to the bath. Then, the adenylate cyclase activator, forskolin (10 μM), is added to the bath to activate CFTR. The forskolin-stimulated Cl— transport is halted by addition of CFTR inhibitor-172 (20 μM) to the bath at the end of the experiment to confirm specificity. VT and TEER recordings are digitally acquired at routine intervals using TECC or MTECC software (EP Design). VT and TEER are transformed into equivalent transepithelial Cl— current (IEQ), and the Area Under the Curve (AUC) of the IEQ time course between forskolin and CFTR inhibitor-172 addition is generated using Excel (Microsoft). Efficacy is expressed as the ratio of the test agent AUC divided by vehicle AUC. EC50s based on AUC are generated using the non-linear regression log(agonist) vs. response function in Prism software (Graphpad) with HillSlope fixed=1.
If a test agent increases the AUC of the forskolin-stimulated IEQ relative to vehicle in CF-HBE cells, and this increase is inhibited by CFTR inhibitor-172, then the test agent is considered a CFTR corrector. TECC assay efficacy is expressed as the ratio of the test agent AUC divided by DMSO vehicle AUC. As set forth in Table 2 below, a TECC value less than 12 is marked “A”; a value between 12-20 is marked “B”; a value between 20 and 80 is marked “C”. […]

NBD1 = molecular target: T2, NBD1 (Homo sapiens, UniProt P13569); assay: Aggregation analysis using differential static light scattering (DSLS), thermal stability of NBD1 (ΔTagg); type: binding; details: ΔTagg versus DMSO control, NBD1 0.2 mg/ml
T2 construct: Purified recombinant NBD1 was produced using previously described methods; made in house
In short: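 Stabilisation is measured as the shift in aggregation onset of recombinant NBD1 (0.2 mg/ml, 2 mM ATP, 5 mM MgCl2, pH7.6) exposed to compound. Images are taken every 0.5° C. while heating at 1° C. per minute, and the inflection-point Tagg is corrected by the DMSO mean.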

T2 sequence (P13569 423-646 limits assumed): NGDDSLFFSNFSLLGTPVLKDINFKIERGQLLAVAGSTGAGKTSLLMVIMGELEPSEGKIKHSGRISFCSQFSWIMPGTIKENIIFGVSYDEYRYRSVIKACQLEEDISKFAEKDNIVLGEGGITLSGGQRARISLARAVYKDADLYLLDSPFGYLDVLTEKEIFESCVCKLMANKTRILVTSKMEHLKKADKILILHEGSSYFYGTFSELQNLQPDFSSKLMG
T1 sequence (P13569 with tags, fused parts or gaps DEL508-508): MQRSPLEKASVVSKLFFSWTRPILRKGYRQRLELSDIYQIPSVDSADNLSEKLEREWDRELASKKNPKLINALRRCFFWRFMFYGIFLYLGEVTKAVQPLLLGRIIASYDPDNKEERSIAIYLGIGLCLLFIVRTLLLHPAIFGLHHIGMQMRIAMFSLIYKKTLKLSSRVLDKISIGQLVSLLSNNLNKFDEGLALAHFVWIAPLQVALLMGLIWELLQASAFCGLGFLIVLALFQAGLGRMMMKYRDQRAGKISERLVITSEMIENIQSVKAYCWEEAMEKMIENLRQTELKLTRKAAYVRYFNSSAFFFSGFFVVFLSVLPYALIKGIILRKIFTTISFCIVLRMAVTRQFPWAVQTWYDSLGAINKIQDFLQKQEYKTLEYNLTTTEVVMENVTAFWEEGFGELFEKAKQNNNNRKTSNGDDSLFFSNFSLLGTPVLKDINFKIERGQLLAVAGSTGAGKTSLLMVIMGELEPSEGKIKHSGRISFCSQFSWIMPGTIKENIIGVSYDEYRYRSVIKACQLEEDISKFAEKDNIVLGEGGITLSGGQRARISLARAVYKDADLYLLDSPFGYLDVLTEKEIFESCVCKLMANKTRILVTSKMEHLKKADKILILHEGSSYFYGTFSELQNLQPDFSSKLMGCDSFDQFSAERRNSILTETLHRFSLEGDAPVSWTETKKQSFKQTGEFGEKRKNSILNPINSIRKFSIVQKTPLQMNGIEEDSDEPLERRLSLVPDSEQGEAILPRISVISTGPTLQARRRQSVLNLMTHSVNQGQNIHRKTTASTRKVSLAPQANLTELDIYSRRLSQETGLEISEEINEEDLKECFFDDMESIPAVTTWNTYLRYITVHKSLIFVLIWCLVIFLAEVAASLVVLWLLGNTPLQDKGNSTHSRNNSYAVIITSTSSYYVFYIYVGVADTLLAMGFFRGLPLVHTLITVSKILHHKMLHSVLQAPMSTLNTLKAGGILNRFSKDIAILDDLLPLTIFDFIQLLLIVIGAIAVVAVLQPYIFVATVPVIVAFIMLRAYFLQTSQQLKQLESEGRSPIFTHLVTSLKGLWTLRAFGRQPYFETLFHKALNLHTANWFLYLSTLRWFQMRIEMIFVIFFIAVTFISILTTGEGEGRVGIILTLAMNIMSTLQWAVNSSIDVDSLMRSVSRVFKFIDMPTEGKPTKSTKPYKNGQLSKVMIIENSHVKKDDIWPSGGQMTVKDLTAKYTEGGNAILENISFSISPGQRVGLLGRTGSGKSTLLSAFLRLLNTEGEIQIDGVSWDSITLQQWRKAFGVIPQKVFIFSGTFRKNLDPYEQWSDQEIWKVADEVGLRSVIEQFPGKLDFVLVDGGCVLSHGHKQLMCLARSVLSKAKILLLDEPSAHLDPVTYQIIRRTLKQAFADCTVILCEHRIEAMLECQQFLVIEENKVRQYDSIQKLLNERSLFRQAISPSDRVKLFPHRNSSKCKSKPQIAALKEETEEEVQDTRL

Question: How did the “TECC (AUC, 10 μM)” value (CFTR) turn out when C[C@H](Cc1cccc(C2(C)CCCC(C)(C)CS(=O)(=O)CCc3c(c(F)cc4[nH]ccc34)Oc3ccc(F)c(c3)-c3nc2nn3C)c1)C(=O)OCCN1CCN(C)CC1 (single isomer, unassigned) [Compound 182] was run?
Answer: A (a TECC value less than 12 is marked “A”)

Question: How did the “TECC (AUC, 10 μM)” value (CFTR) turn out when Cn1nc2nc1-c1cc(ccc1F)[S+]([O-])c1c(F)cc3[nH]ccc3c1CCS(=O)(=O)CC(C)(C)CCCC2(C)c1cccc(/C=C/C(=O)O)c1 (single isomer, unassigned) [Compound 210A, (E)-3-[3-(22,28-difluoro-3,6,10,10-tetramethyl-12,12,24-trioxo-12λ6,24λ4-dithia-3,4,19,30-tetrazapentacyclo[23.3.1.12,5.015,23.016,20]triaconta-1(29),2(30),4,15,17,20,22,25,27-nonaen-6-yl)phenyl]prop-2-enoic Acid] was run?
Answer: C (a value between 20 and 80 is marked “C”)

Question: With Cn1nc2nc1-c1cc(ccc1F)[S+]([O-])c1c(F)cc3[nH]ccc3c1CCS(=O)(=O)CC(C)(C)CCCC2(C)c1cccc(/C=C/C(=O)O)c1 (single isomer, unassigned) [Compound 210B, (E)-3-[3-(22,28-difluoro-3,6,10,10-tetramethyl-12,12,24-trioxo-12λ6,24λ4-dithia-3,4,19,30-tetrazapentacyclo[23.3.1.12,5.015,23.016,20]triaconta-1(29),2(30),4,15,17,20,22,25,27-nonaen-6-yl)phenyl]prop-2-enoic Acid] as the compound, how does the “TECC (AUC, 10 μM)” value (CFTR) read?
Answer: A (a TECC value less than 12 is marked “A”)

Question: How did the “TECC (AUC, 10 μM)” value (CFTR) turn out when Cn1nc2nc1-c1cc(ccc1F)[S+]([O-])c1c(F)cc3[nH]ccc3c1CCS(=O)(=O)CC(C)(C)CCCC2(C)c1cccc(/C=C/C(=O)O)c1 (single isomer, unassigned) [Compound 210C, (E)-3-[3-(22,28-difluoro-3,6,10,10-tetramethyl-12,12,24-trioxo-12λ6,24λ4-dithia-3,4,19,30-tetrazapentacyclo[23.3.1.12,5.015,23.016,20]triaconta-1(29),2(30),4,15,17,20,22,25,27-nonaen-6-yl)phenyl]prop-2-enoic Acid] was run?
Answer: B (a value between 12-20 is marked “B”)

Question: How did the “TECC (AUC, 10 μM)” value (CFTR) turn out when Cn1nc2nc1-c1cc(ccc1F)[S+]([O-])c1c(F)cc3[nH]ccc3c1CCS(=O)(=O)CC(C)(C)CCCC2(C)c1cccc(/C=C/C(=O)O)c1 (single isomer, unassigned) [Compound 210D, (E)-3-[3-(22,28-difluoro-3,6,10,10-tetramethyl-12,12,24-trioxo-12λ6,24λ4-dithia-3,4,19,30-tetrazapentacyclo[23.3.1.12,5.015,23.016,20]triaconta-1(29),2(30),4,15,17,20,22,25,27-nonaen-6-yl)phenyl]prop-2-enoic Acid] was run?
Answer: C (a value between 20 and 80 is marked “C”)

Question: COc1c(CCC(=O)O)cccc1C1(C)CCCC(C)(C)CS(=O)(=O)CCc2c(c(F)c(F)c3[nH]ccc23)Oc2ccc(F)c(c2)-c2nc1nn2C (stereo not drawn) [Compound 373, 3-[2-Methoxy-3-(21,22,28-trifluoro-3,6,10,10-tetramethyl-12,12-dioxo-24-oxa-12λ6-thia-3,4,19,30-tetrazapentacyclo[23.3.1.12,5.015,23.016,20]triaconta-1(29),2(30),4,15,17,20,22,25,27-nonaen-6-yl)phenyl]propanoic Acid] was tested. Which “DSLS 3D (100 μM ΔT)” value (NBD1) did it give?
Answer: B (a value above 5 °C and less than or equal to 10 °C is marked “B”)

Question: COC(=O)[C@H](C)Cc1cccc([C@@]2(C)CCCC(C)(C)CS(=O)(=O)CCc3c(c(F)cc4[nH]ccc34)Sc3cc(c(F)cc3O)-c3nc2nn3C)c1 [Compound 376, Methyl (2R)-3-[3-[(6R)-22,28-difluoro-26-hydroxy-3,6,10,10-tetramethyl-12,12-dioxo-12λ6,24-dithia-3,4,19,30-tetrazapentacyclo[23.3.1.12,5.015,23.016,20]triaconta-1(29),2(30),4,15,17,20,22,25,27-nonaen-6-yl]phenyl]-2-methyl-propanoate] was tested. Which “DSLS 3D (100 μM ΔT)” value (NBD1) did it give?
Answer: A (an ΔTagg value less than or equal to 5 °C is marked “A”)

Question: Which “DSLS 3D (100 μM ΔT)” value (NBD1) does the source give for C[C@H](Cc1cccc([C@@]2(C)CCCC(C)(C)CS(=O)(=O)CCc3c(c(F)cc4[nH]ccc34)Sc3cc(c(F)cc3N)-c3nc2nn3C)c1)C(=O)O [Compound 377, (2R)-3-[3-[(6R)-26-Amino-22,28-difluoro-3,6,10,10-tetramethyl-12,12-dioxo-12λ6,24-dithia-3,4,19,30-tetrazapentacyclo[23.3.1.12,5.015,23.016,20]triaconta-1(29),2(30),4,15,17,20,22,25,27-nonaen-6-yl]phenyl]-2-methyl-propanoic Acid] here?
Answer: B (a value above 5 °C and less than or equal to 10 °C is marked “B”)

Question: C[C@H](Cc1cccc([C@@]2(C)CCCC(C)(C)CS(=O)(=O)CCc3c(c(F)cc4[nH]ccc34)Sc3cc(c(F)cc3C(=O)O)-c3nc2nn3C)c1)C(=O)O [Compound 378, (6R)-6-[3-[(2R)-2-Carboxypropyl]phenyl]-22,28-difluoro-3,6,10,10-tetramethyl-12,12-dioxo-12λ6,24-dithia-3,4,19,30-tetrazapentacyclo[23.3.1.12,5.015,23.016,20]triaconta-1(29),2(30),4,15,17,20,22,25,27-nonaene-26-carboxylic Acid] was tested. Which “DSLS 3D (100 μM ΔT)” value (NBD1) did it give?
Answer: A (an ΔTagg value less than or equal to 5 °C is marked “A”)

Question: With C[C@H](Cc1cccc([C@@]2(C)CCCC(C)(C)CS(=O)(=O)CCc3c(c(F)cc4[nH]ccc34)S(=O)(=O)c3cc(c(F)cc3N)-c3nc2nn3C)c1)C(=O)O [Compound 379C, (2R)-3-[3-[(6R)-26-Amino-22,28-difluoro-3,6,10,10-tetramethyl-12,12,24,24-tetraoxo-12λ6,24λ6-dithia-3,4,19,30-tetrazapentacyclo[23.3.1.12,5.015,23.016,20]triaconta-1(29),2(30),4,15,17,20,22,25,27-nonaen-6-yl]phenyl]-2-methyl-propanoic acid] as the compound, how does the “DSLS 3D (100 μM ΔT)” value (NBD1) read?
Answer: A (an ΔTagg value less than or equal to 5 °C is marked “A”)

Question: How did the “DSLS 3D (100 μM ΔT)” value (NBD1) turn out when C[C@@H](Cc1cccc([C@@]2(C)CCCC(C)(C)CS(=O)(=O)CCc3c(c(F)c(F)c4[nH]ncc34)Oc3ccc(F)c(c3)-c3nc2nn3C)c1)C(=O)O [Compound 382, (2S)-2-Methyl-3-[3-[(6R)-21,22,28-trifluoro-3,6,10,10-tetramethyl-12,12-dioxo-24-oxa-12λ6-thia-3,4,18,19,30-pentazapentacyclo[23.3.1.12,5.015,23.016,20]triaconta-1(29),2(30),4,15,17,20,22,25,27-nonaen-6-yl]phenyl]propanoic Acid] was run?
Answer: B (a value above 5 °C and less than or equal to 10 °C is marked “B”)

Question: With Cc1onc(NC(=O)[C@H](C)Cc2cccc([C@@]3(C)CCCC(C)(C)CS(=O)(=O)CCc4c(c(F)c(F)c5[nH]ccc45)Oc4ccc(F)c(c4)-c4nc3nn4C)c2)c1C [Compound 384, (2R)—N-(4,5-Dimethylisoxazol-3-yl)-2-methyl-3-[3-[(6R)-21,22,28-trifluoro-3,6,10,10-tetramethyl-12,12-dioxo-24-oxa-12λ6-thia-3,4,19,30-tetrazapentacyclo[23.3.1.12,5.015,23.016,20]triaconta-1(29),2(30),4,15,17,20,22,25,27-nonaen-6-yl]phenyl]propenamide] as the compound, how does the “DSLS 3D (100 μM ΔT)” value (NBD1) read?
Answer: A (an ΔTagg value less than or equal to 5 °C is marked “A”)
